Entries after “also recorded” stand apart in the source; their conditions may differ.
Legend:
[1] = e.g. long-term ventilation, current state of knowledge, cited from earlier work
brain = test: administration of xenon (inhalation): cerebral perfusion and oxygen supply in the brain; assay type: in vivo

[Xe] [xenon]
side effects ([1]; prolonged administration): no side effects
accumulation in the body ([1]; use as medicament): no accumulation
metabolites formed in the body ([1]; use as medicament): no metabolites are formed
cerebral perfusion (brain; administered xenon, available results): improvement in cerebral perfusion
oxygen supply in the brain (brain; administration of xenon or xenon-containing gases, in particular by inhalation): increased; also recorded: improved
cerebral autoregulation (brain; preliminary results): maintained or improved
vasodilator action, especially capillary vasodilator in the capillary vascular system (brain; preliminary results): acts as vasodilator
